According to patent US11179389B2, “Purine inhibitors of human phosphatidylinositol 3-kinase delta” (Merck Sharp & Dohme Corp., priority 2017, dated 2021):

Assays:
PI3Kalpha = PI3Kalpha (Homo sapiens (Human), UniProt P42336); experiment: HTRF PI3K biochemical assay, alpha isoform (for selectivity ratio); details: ratio PI3K-alpha IC50 value / PI3K-delta IC50 value
Source text: (§1) HTRF PI3K Biochemical Assay to Measure Intrinsic Potency of Compound Inhibitors
(§2) The PI3-Kinase biochemical assays were developed to measure the intrinsic potency and compound dependent inhibition of the alpha, beta, delta, and gamma PI3K isoform enzymes. This assay was developed and further optimized from a kit produced by Upstate (Millipore catalog #33-047) (Millipore Sigma. Billerica Mass., USA) and has been configured for high throughput screening (HTS) and structure-activity relationship (SAR) screening. Briefly, this procedure exploits the exquisite specificity and high affinity binding of enzyme reaction […] phosphatidyl(3,4,5)triphosphate (PIP3) to the GRP1 pleckstrin homology (PH) domain to generate the signal. In the absence of PIP3, an HTRF (Homogeneous Time-Resolved Fluorescence energy transfer) complex is formed consisting of europium (Eu)-labeled anti-GST, GSTtagged GRP1-PH domain, biotin-PIP3 (biotinylated-PIP3) and streptavidin conjugated APC (Allophycocyanin). The native PIP3 produced by PI3-Kinase activity disrupts in a competitive manner the biotin-PIP3 from the pleckstrin homology (PH) domain, resulting in the loss of energy transfer (HTRF complex) and a decrease in the signal. The format of this assay is the same for all 4 isoforms of PI3K; the differences lie in the concentration of enzyme used to achieve robust assay window. The alpha, beta, and delta assays are run at 0.5, 1, and 0.3 nM enzymes and the gamma assay is run at 5 nM enzyme. The ATP concentration is 100 uM in the alpha, beta, and delta assays and 50 uM adenosine triphosphate (ATP) in the gamma assay. All reactions are run at 5 uM PIP2.
(§3) Compounds are serially diluted (3-fold in 100% DMSO) across a 384-well polypropylene source plated from column 3 to column 12 and column 13 to column 22, to yield 10 concentration dose response for each test compound. Columns 1, 2, 23 and 24 contain either only DMSO or pharmacological known control inhibitor. Once titrations are made, 2.5 nL of the compounds on 384 well plates are reformatted and transferred by acoustic dispense in quadruplicates to a 1536 assay plate (Greiner) to assay across all four PI3K isoform enzymes.
(§4) The PI3-Kinase biochemical assay was optimized using the HTRF kit provided by Upstate (Millipore). The assay kit contains six reagents: 1) 4×Reaction Buffer; 2) native PIP2 (substrate); 3) Stop (EDTA); 4) Detection Mix A (Streptavidin-APC); 5) Detection Mix B (Eu-labeled Anti-GST plus GST-tagged PH-domain): 6) Detection Mix C. In addition, the following items were obtained or purchased; PI3Kinase (catalog #'s alpha 14-602, beta 14-603, gamma 14-558 and delta 14-604 from Upstate Biotechnology now EMD Millipore, Mahopac, N.Y., USA), dithiothreitol (Sigma-Aldrich Corp. (St. Louis, Mo., USA) Catalog #D-5545), Adenosine-5′ triphosphate (InVitrogen (Waltham, Mass., USA), Cat#AS001 Å), native PIP3 (PI(3,4,5)P3, diC8, H^+, CELLSIGNALS, INC., (Columbus, Ohio, USA) Cat #907) DMSO ((Sigma-Aldrich Corp. (St. Louis. Mo., USA) Catalog #472301).
(§5) PI3Kinase Reaction Buffer is prepared by dilution the stock 1:4 with de-ionized water. DTT (DL-Dithiothreitol), phosphatidylinositol 4,5-bisphosphate (PIP2) and Biotin-PIP3 were added to 1536 assay plate at a final concentration of 5 mM, […] and 25 nM on the day of use. Enzyme addition and compound pre-incubation are initiated by the addition of 1.25 ul of PI3K (at twice its final concentration) in the 1× reaction buffer to all wells using a BioRaptor™. Plates are incubated at room temperature for 15 minutes. Reactions are initiated by addition of 1.25 ul of 2× substrate solution (PIP2 and ATP in 1× reaction buffer) using BioRaptor™. Plates are incubated in humidified chamber at room temperature for one hour. Reactions are quenched by addition of 0.625 uL of stop solution to all wells using the BioRaptor™. […]

PI3Kdelta = PI3Kdelta (Homo sapiens (Human), UniProt O00329); experiment: HTRF PI3K biochemical assay, delta isoform; details: 0.3 nM enzyme, 100 uM ATP, 5 uM PIP2, form screened per table (Neutral or TFA salt)
Source text: as §1, §2, §3, §4, §5

Sequence of PI3Kdelta (O00329 whole entry, canonical isoform): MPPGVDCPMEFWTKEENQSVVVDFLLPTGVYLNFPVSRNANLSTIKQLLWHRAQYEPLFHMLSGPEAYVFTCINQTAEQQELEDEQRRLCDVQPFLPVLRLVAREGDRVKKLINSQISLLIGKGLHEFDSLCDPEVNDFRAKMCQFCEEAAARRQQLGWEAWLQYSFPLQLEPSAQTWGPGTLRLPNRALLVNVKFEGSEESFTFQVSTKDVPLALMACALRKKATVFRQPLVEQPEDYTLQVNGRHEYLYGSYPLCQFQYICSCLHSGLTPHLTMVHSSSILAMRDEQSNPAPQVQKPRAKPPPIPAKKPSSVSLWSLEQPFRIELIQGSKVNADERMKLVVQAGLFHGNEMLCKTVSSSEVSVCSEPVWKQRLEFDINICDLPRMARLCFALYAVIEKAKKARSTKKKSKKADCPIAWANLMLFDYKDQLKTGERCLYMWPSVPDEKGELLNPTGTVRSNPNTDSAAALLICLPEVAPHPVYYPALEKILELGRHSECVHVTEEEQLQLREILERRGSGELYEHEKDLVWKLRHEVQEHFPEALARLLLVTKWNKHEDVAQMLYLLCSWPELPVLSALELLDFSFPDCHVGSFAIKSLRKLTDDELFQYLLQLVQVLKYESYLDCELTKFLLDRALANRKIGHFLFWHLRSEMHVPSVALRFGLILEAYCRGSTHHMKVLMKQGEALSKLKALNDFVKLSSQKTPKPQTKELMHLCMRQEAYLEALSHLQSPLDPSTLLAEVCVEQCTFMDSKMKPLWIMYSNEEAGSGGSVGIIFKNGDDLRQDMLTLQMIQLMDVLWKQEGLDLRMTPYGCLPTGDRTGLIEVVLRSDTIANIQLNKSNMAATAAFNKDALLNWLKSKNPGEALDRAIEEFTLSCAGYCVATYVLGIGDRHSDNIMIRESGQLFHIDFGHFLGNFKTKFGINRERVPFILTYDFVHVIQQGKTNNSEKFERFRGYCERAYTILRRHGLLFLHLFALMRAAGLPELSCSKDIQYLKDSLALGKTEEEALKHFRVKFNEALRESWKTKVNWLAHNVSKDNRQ
Sequence of PI3Kdelta (P27986 whole entry partner, canonical isoform): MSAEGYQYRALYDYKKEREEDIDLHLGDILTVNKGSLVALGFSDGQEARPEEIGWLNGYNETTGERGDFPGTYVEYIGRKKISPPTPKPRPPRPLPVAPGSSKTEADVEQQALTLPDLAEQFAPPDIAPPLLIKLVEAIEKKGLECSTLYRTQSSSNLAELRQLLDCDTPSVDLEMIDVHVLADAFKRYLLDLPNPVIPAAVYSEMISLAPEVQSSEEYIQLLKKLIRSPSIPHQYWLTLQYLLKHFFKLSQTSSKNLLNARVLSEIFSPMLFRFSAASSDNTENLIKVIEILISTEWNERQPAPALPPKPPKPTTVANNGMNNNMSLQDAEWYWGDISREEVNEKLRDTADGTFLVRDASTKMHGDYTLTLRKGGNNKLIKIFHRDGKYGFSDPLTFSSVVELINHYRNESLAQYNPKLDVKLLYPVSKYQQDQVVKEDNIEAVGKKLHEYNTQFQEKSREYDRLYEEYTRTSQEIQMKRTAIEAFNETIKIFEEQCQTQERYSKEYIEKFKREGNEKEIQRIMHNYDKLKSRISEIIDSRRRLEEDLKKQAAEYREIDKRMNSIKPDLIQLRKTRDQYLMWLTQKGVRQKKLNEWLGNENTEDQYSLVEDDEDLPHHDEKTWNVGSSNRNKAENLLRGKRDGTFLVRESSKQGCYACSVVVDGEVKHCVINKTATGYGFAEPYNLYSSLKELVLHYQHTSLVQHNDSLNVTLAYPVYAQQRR
Sequence of PI3Kalpha (P42336 whole entry, canonical isoform): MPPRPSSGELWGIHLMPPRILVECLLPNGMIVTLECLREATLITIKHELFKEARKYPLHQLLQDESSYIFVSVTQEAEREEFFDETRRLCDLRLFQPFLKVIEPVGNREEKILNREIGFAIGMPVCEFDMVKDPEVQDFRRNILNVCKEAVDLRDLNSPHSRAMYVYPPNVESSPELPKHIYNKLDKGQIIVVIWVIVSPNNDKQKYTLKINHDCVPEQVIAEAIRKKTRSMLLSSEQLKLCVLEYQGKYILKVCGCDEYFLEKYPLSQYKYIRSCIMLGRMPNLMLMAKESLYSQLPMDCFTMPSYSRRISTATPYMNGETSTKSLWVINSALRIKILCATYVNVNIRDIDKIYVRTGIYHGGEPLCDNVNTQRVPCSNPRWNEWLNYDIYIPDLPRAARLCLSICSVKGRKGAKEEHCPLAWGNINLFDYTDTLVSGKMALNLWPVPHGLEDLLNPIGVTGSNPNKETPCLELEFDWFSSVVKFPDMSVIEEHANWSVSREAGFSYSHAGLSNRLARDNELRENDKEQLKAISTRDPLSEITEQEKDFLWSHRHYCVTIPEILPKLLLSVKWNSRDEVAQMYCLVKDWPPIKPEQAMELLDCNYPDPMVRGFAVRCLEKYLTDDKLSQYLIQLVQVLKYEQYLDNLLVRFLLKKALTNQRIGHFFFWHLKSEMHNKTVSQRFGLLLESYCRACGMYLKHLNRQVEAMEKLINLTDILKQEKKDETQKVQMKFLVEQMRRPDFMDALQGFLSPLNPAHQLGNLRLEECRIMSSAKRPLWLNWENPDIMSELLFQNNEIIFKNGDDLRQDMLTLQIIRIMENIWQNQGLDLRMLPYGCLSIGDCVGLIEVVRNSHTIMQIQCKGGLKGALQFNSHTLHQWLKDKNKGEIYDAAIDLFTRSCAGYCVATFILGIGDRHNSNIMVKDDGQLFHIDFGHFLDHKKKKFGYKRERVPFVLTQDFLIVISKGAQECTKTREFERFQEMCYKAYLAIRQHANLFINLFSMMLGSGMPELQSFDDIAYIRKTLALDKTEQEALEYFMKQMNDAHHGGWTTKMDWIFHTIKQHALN
Sequence of PI3Kalpha (P27986 whole entry partner, canonical isoform): as the sequence (P27986 whole entry partner, canonical isoform) above

Structure (SMILES) | Selectivity versus PI3Kalpha (PI3Kalpha) | IC50 (PI3Kdelta) [nM]
Cn1cc(-c2nc(N3CCC4(CCC(=O)N4CC(F)(F)F)CC3)cnc2C#N)cn1 [Compound 1-21, 3-(1-methyl-1H-pyrazol-4-yl)-5-[2-oxo-1-(2,2,2-trifluoroethyl)-1,8-diazaspiro[4.5]dec-8-yl]pyrazine-2-carbonitrile] | >10 | 37
CCCN1C(=O)OCC12CCN(c1cnc(C#N)c(-c3cnn(C)c3)n1)CC2 [Compound 1-22, 3-(1-methyl-1H-pyrazol-4-yl)-5-(2-oxo-1-propyl-3-oxa-1,8-diazaspiro[4.5]dec-8-yl)pyrazine-2-carbonitrile] | >10 | 30
Cn1cc(-c2nc(N3CCC4(CC3)COC(=O)N4CC3CCC3)cnc2C#N)cn1 [Compound 1-23, 5-[1-(cyclobutylmethyl)-2-oxo-3-oxa-1,8-diazaspiro[4.5]dec-8-yl]-3-(1-methyl-1H-pyrazol-4-yl)pyrazine-2-carbonitrile] | >10 | 18
Cn1cc(-c2nc(N3CCC4(CC3)COCC(=O)N4CC3CC3)cnc2C#N)cn1 [Compound 1-24, 5-[1-(cyclopropylmethyl)-2-oxo-4-oxa-1,9-diazaspiro[5.5]undec-9-yl]-3-(1-methyl-1H-pyrazol-4-yl)pyrazine-2-carbonitrile] | >10 | 10
Cn1cc(-c2nc(N3CCC(C)(N4CCOCC4)CC3)cnc2C#N)cn1 [Compound 1-25, 5-(4-methyl-4-morpholin-4-ylpiperidin-1-yl)-3-(1-methyl-1H-pyrazol-4-yl)pyrazine-2-carbonitrile] | >10 | 52
Cn1cc(-c2nc(N3CCC(C)(N4CCCCC4)CC3)cnc2C#N)cn1 [Compound 1-26, 5-(4′-methyl-1,4′-bipiperidin-1′-yl)-3-(1-methyl-1H-pyrazol-4-yl)pyrazine-2-carbonitrile] | >10 | 70
CO[C@H]1C[C@@H](C(=O)N2CCN(c3cnc(C#N)c(-c4cnn(C)c4)n3)C[C@H]2C)C1 [Compound 1-27, 5-{(3R)-4-[(cis-3-methoxycyclobutyl)carbonyl]-3-methylpiperazin-1-yl}-3-(1-methyl-1H-pyrazol-4-yl)pyrazine-2-carbonitrile] | >10 | 100
C[C@@H]1CN(c2cnc(C#N)c(-c3cnn(C)c3)n2)CCN1C(=O)C1CC(F)(F)C1 [Compound 1-28, 5-{(3R)-4-[(3,3-difluorocyclobutyl)carbonyl]-3-methylpiperazin-1-yl}-3-(1-methyl-1H-pyrazol-4-yl)pyrazine-2-carbonitrile] | >10 | 100
C[C@@H]1CN(c2cnc(C#N)c(-c3cnn(C)c3)n2)CCN1C(=O)[C@@H]1C[C@@H]1F [Compound 1-29, 5-[(3R)-4-{[(1S,2S)-2-fluorocyclopropyl]carbonyl}-3-methylpiperazin-1-yl]-3-(1-methyl-1H-pyrazol-4-yl)pyrazine-2-carbonitrile] | >10 | 29
CCC(=O)N1CCN(c2cnc(C#N)c(-c3cnn(C)c3)n2)C[C@H]1C [Compound 1-30, 5-[(3R)-3-methyl-4-propanoylpiperazin-1-yl]-3-(1-methyl-1H-pyrazol-4-yl)pyrazine-2-carbonitrile] | >10 | 150
C[C@@H]1CN(c2cnc(C#N)c(-c3cnn(C)c3)n2)CCN1C(=O)C1(C)CC1 [Compound 1-31, 5-{(3R)-3-methyl-4-[(1-methylcyclopropyl)carbonyl]piperazin-1-yl}-3-(1-methyl-1H-pyrazol-4-yl)pyrazine-2-carbonitrile] | >10 | 280
C[C@@H]1CN(c2cnc(C#N)c(-c3cnn(C)c3)n2)CCN1C(=O)N1CCCC1 [Compound 1-32, 3-(1-methyl-1H-pyrazol-4-yl)-5-[(3R)-3-methyl-4-(pyrrolidin-1-ylcarbonyl)piperazin-1-yl]pyrazine-2-carbonitrile] | >10 | 180
